Results reported in patent publication US4282363A, “1-Nitro-2-(2-alkynylamino)-2-[(2-pyridylmethylthio)-ethylamino]ethylene derivatives” (Bristol-Myers Company, priority 1980, dated 1981).
Where two headings read alike, the source gives them in different places. Blank lines part the entries; values can stand above or below the compound they belong to.

What was measured:
histamine H2 -receptor = molecular target: T1, histamine H2 -receptor (Cavia porcellus, UniProt P47747); test: Histamine H2-receptor antagonism, isolated guinea pig right atria assay (displacement of histamine concentration-response curve of atrial rate); parameters: species or system guinea pig (male Hartley); settings: for Histamine ED50 With 95% Confidence Limits (after test compound): histamine ED50 in presence of test compound 3 × 10^-5 M, 30 minute incubation; for Concentration-Response Curve Displacement Factor: test compound 3 × 10^-5 M, displacement of histamine curve to the right
T1 construct: The spontaneously beating right atrium was dissected free from other tissues; from tissue; host or cells: isolated, spontaneously beating right atrium of male Hartley guinea pigs
T1 sequence (P47747 whole entry): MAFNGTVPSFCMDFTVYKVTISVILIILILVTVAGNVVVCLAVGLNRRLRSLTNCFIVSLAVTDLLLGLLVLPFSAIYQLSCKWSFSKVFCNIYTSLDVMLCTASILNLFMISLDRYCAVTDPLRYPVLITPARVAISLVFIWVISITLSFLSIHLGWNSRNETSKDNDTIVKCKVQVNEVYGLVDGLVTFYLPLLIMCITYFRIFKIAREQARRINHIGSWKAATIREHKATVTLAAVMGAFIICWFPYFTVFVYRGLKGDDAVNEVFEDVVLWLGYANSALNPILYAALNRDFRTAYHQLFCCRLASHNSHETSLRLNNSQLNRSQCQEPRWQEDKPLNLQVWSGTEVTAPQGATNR
Method: Subsequent investigations by Hughes and Coret, Proc. Soc. […] Black et al., Agents and Actions, 3, 133 (1973) and Brimblecombe et al., Fed. […] The present comparative studies were carried out using a modification of the procedure reported by Reinhardt et al., Agents and Actions, 4, 217 (1974).
Male Hartley strain guinea pigs (350-450 gm.) were sacrificed by a blow on the head. The heart was excised and placed in a Petri dish of oxygenated (95% O2, 5% CO2) modified Krebs solution (g./liter: NaCl 6.6, KCl 0.35, MgSO4.7H2 O 0.295, KH2 PO4 0.162, CaCl2 0.238, NaHCO3 2.1 and dextrose 2.09). The spontaneously beating right atrium was dissected free from other tissues and a silk thread (4-0) attached to each end. The atrium was suspended in a 20 ml. muscle chamber containing oxygenated modified Krebs solution maintained at 32° C. Atrial contractions were recorded isometrically be means of a Grass FT 0.03 force displacement transducer and recordings of contractile force and rate were made with Beckman RP Dynograph.
A resting tension of 1 g. was applied to the atrium and it was allowed to equilibrate for 1 hour.
Concentration-response curve displacement factors were calculated as follows: [formula] […] [formula]

gastric secretion [1] = settings: man, cited from earlier work
gastric secretion [2] = settings: animals; cited from earlier work
peptic ulcer disease = settings: cited from earlier work
histamine H2 -receptors = settings: isolated right atria, cited from earlier work
[3] = clinical use; cited from earlier work
[4] = 200-300 mg. tablets, multi daily doses; cited from earlier work
H2 -receptors = settings: compared with other H2 antagonists; cited from earlier work

Histamine ED50 With 95% Confidence Limits (after test compound) (histamine H2 -receptor): 20.97 µg/mL
Concentration-Response Curve Displacement Factor (histamine H2 -receptor): 52.77
Compound: C#CCNC(=C[N+](=O)[O-])NCCSCc1ncccc1Cl [BL-6075, 1-Nitro-2-(2-propynlamino)-2-{2-[(3-chloro-2-pyridyl)-methylthio]ethylamino}ethylene]

Histamine ED50 With 95% Confidence Limits (after test compound) (histamine H2 -receptor): 57.92 µg/mL
Activity Ratio Relative to Cimetidine (histamine H2 -receptor; ratio of displacement factors, cimetidine = 1.0, times more potent/active than cimetidine): 8.19
Concentration-Response Curve Displacement Factor (histamine H2 -receptor): 206.86
Compound: C#CCNC(=NCCSCc1ncccc1Cl)NC#N [BL-6083, N-Cyano-N'-(2-propyn-1-yl)-N"-{2-[(3-chloro-2-pyridyl)-methylthio]ethyl}guanidine]

Compound: CNC(=S)NCCCCc1c[nH]cn1 [Burimamide]
inhibition of gastric secretion (gastric secretion [1]): inhibits gastric secretion
inhibition of gastric secretion (gastric secretion [2]): inhibits gastric secretion
clinical effectiveness as H2 -receptor antagonist (peptic ulcer disease; in vivo): first clinically effective H2 -receptor antagonist
antagonism of H2-receptors (histamine H2 -receptors): competitive antagonist

Compound: CNC(=NC#N)NCCSCc1[nH]cnc1C [Cimetidine]
toxicity (agranulocytosis) [3]: without producing agranulocytosis
therapeutic effectiveness in peptic ulcer disease (peptic ulcer disease; clinical evaluation): effective therapeutic agent in the treatment of peptic ulcer disease
half-life [4]: relatively short
H2 antagonist potency, comparison in words (H2 -receptors): as effective an H2 antagonist as metiamide
Histamine ED50 With 95% Confidence Limits (after test compound) (histamine H2 -receptor): 4.80 µg/mL

Compound: NCCc1c[nH]cn1 [Histamine, histamine]
effect on contractile rate (histamine H2 -receptors; agonist): concentration-related increases in the contractile rate
histamine concentration giving maximal response (histamine H2 -receptor; final molar bath concentration, increase in atrial rate): 30 µM

Compound: CNC(=S)NCCSCc1[nH]cnc1C [Metiamide]
oral activity (gastric secretion [1]; oral): orally active in man
toxicity (agranulocytosis) [3]: toxicity (agranulocytosis)
H2 antagonist potency, comparison in words (H2 -receptors): more potent than burimamide
